Test results from PubChem BioAssay (NCI).
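Interpolation was linear, between the two tested concentrations surrounding the appropriate level; five concentrations were tested over 48 hours in 96-well plates. The concentration for 50% growth inhibition is given as GI50. TGI: concentration producing complete growth inhibition.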

How the values were obtained:
Experiment in all cases: growth of human tumour cells (NCI), 48 h
786-0 renal = system: 786-0 renal
A549 NSCLC = system: A549 NSCLC
ACHN renal = system: ACHN renal
BT-549 breast = system: BT-549 breast
CAKI-1 renal = system: CAKI-1 renal
CCRF-CEM leukemia = system: CCRF-CEM leukemia
COLO 205 colon = system: COLO 205 colon
DU-145 prostate = system: DU-145 prostate
EKVX NSCLC = system: EKVX NSCLC
HCC-2998 colon = system: HCC-2998 colon
HCT-116 colon = system: HCT-116 colon
HCT-15 colon = system: HCT-15 colon
HL-60(TB) leukemia = system: HL-60(TB) leukemia
HOP-62 NSCLC = system: HOP-62 NSCLC
HOP-92 NSCLC = system: HOP-92 NSCLC
HT29 colon = system: HT29 colon
IGROV1 ovarian = system: IGROV1 ovarian
K-562 leukemia = system: K-562 leukemia
KM12 colon = system: KM12 colon
LOX IMVI melanoma = system: LOX IMVI melanoma
M14 melanoma = system: M14 melanoma
MALME-3M melanoma = system: MALME-3M melanoma
MCF7 breast = system: MCF7 breast
MDA-MB-231 breast = system: MDA-MB-231 breast
MDA-MB-435 = system: MDA-MB-435
MOLT-4 leukemia = system: MOLT-4 leukemia
NCI-H226 lung = system: NCI-H226 lung
NCI-H23 lung = system: NCI-H23 lung
NCI-H460 lung = system: NCI-H460 lung
NCI-H522 lung = system: NCI-H522 lung
NCI/ADR-RES ovarian = system: NCI/ADR-RES ovarian
OVCAR-4 ovarian = system: OVCAR-4 ovarian
OVCAR-5 ovarian = system: OVCAR-5 ovarian
OVCAR-8 ovarian = system: OVCAR-8 ovarian
PC-3 prostate = system: PC-3 prostate
RPMI-8226 leukemia = system: RPMI-8226 leukemia
SF-268 CNS = system: SF-268 CNS
SF-295 CNS = system: SF-295 CNS
SF-539 CNS = system: SF-539 CNS
SK-MEL-2 melanoma = system: SK-MEL-2 melanoma
SK-MEL-28 melanoma = system: SK-MEL-28 melanoma
SK-MEL-5 melanoma = system: SK-MEL-5 melanoma
SN12C renal = system: SN12C renal
SNB-19 CNS = system: SNB-19 CNS
SNB-75 CNS = system: SNB-75 CNS
SR leukemia = system: SR leukemia
SW-620 colon = system: SW-620 colon
TK-10 renal = system: TK-10 renal
U251 CNS = system: U251 CNS
UACC-257 melanoma = system: UACC-257 melanoma
A498 renal = system: A498 renal
HS 578T breast = system: HS 578T breast
OVCAR-3 ovarian = system: OVCAR-3 ovarian
RXF 393 renal = system: RXF 393 renal
SK-OV-3 ovarian = system: SK-OV-3 ovarian
UACC-62 melanoma = system: UACC-62 melanoma
T-47D breast = system: T-47D breast
UO-31 renal = system: UO-31 renal

O=C(NNC(c1ccccc1)C(F)(F)F)c1ccncc1 (centres undefined)
TGI (786-0 renal): > 100 µM
TGI (A549 NSCLC): > 100 µM
TGI (ACHN renal): > 100 µM
TGI (BT-549 breast): > 100 µM
TGI (CAKI-1 renal): > 100 µM
TGI (CCRF-CEM leukemia): > 100 µM
TGI (COLO 205 colon): > 100 µM
TGI (DU-145 prostate): > 100 µM
TGI (EKVX NSCLC): > 100 µM
TGI (HCC-2998 colon): > 100 µM
TGI (HCT-116 colon): > 100 µM
TGI (HCT-15 colon): > 100 µM
TGI (HL-60(TB) leukemia): > 100 µM
TGI (HOP-62 NSCLC): > 100 µM
TGI (HOP-92 NSCLC): > 100 µM
TGI (HT29 colon): > 100 µM
TGI (IGROV1 ovarian): > 100 µM
TGI (K-562 leukemia): > 100 µM
TGI (KM12 colon): > 100 µM
TGI (LOX IMVI melanoma): > 100 µM
TGI (M14 melanoma): > 100 µM
TGI (MALME-3M melanoma): > 100 µM
TGI (MCF7 breast): > 100 µM
TGI (MDA-MB-231 breast): > 100 µM
TGI (MDA-MB-435): > 100 µM
TGI (MOLT-4 leukemia): > 100 µM
TGI (NCI-H226 lung): > 100 µM
TGI (NCI-H23 lung): > 100 µM
TGI (NCI-H460 lung): > 100 µM
TGI (NCI-H522 lung): > 100 µM
TGI (NCI/ADR-RES ovarian): > 100 µM
TGI (OVCAR-4 ovarian): > 100 µM
TGI (OVCAR-5 ovarian): > 100 µM
TGI (OVCAR-8 ovarian): > 100 µM
TGI (PC-3 prostate): > 100 µM
TGI (RPMI-8226 leukemia): > 100 µM
TGI (SF-268 CNS): > 100 µM
TGI (SF-295 CNS): > 100 µM
TGI (SF-539 CNS): > 100 µM
TGI (SK-MEL-2 melanoma): > 100 µM
TGI (SK-MEL-28 melanoma): > 100 µM
TGI (SK-MEL-5 melanoma): > 100 µM
TGI (SN12C renal): > 100 µM
TGI (SNB-19 CNS): > 100 µM
TGI (SNB-75 CNS): > 100 µM
TGI (SR leukemia): > 100 µM
TGI (SW-620 colon): > 100 µM
TGI (TK-10 renal): > 100 µM
TGI (U251 CNS): > 100 µM
TGI (UACC-257 melanoma): > 100 µM

N=c1c2c(=S)n(-c3ccccc3)c(=S)n(-c3ccccc3)c2nc(SCCCN2CCN(c3cccc(Cl)c3)CC2)n1-c1ccccc1
TGI (A498 renal): > 100 µM
TGI (ACHN renal): > 100 µM
TGI (BT-549 breast): > 100 µM
TGI (CAKI-1 renal): > 100 µM
TGI (CCRF-CEM leukemia): > 100 µM
TGI (COLO 205 colon): > 100 µM
TGI (DU-145 prostate): > 100 µM
TGI (EKVX NSCLC): > 100 µM
TGI (HCC-2998 colon): > 100 µM
TGI (HCT-15 colon): > 100 µM
TGI (HL-60(TB) leukemia): > 100 µM
TGI (HOP-62 NSCLC): > 100 µM
TGI (HOP-92 NSCLC): > 100 µM
TGI (HS 578T breast): > 100 µM
TGI (IGROV1 ovarian): > 100 µM
TGI (K-562 leukemia): > 100 µM
TGI (KM12 colon): > 100 µM
TGI (LOX IMVI melanoma): > 100 µM
TGI (MALME-3M melanoma): > 100 µM
TGI (MCF7 breast): > 100 µM
TGI (MDA-MB-231 breast): 70.9 µM
TGI (MDA-MB-435): > 100 µM
TGI (MOLT-4 leukemia): > 100 µM
TGI (NCI-H226 lung): > 100 µM
TGI (NCI-H23 lung): > 100 µM
TGI (NCI-H460 lung): > 100 µM
TGI (NCI-H522 lung): > 100 µM
TGI (NCI/ADR-RES ovarian): > 100 µM
TGI (OVCAR-3 ovarian): > 100 µM
TGI (OVCAR-4 ovarian): > 100 µM
TGI (OVCAR-5 ovarian): > 100 µM
TGI (OVCAR-8 ovarian): > 100 µM
TGI (PC-3 prostate): > 100 µM
TGI (RPMI-8226 leukemia): > 100 µM
TGI (RXF 393 renal): > 100 µM
TGI (SF-295 CNS): > 100 µM
TGI (SF-539 CNS): > 100 µM
TGI (SK-MEL-2 melanoma): > 100 µM
TGI (SK-MEL-28 melanoma): > 100 µM
TGI (SK-MEL-5 melanoma): > 100 µM
TGI (SK-OV-3 ovarian): > 100 µM
TGI (SNB-75 CNS): > 100 µM
TGI (SR leukemia): > 100 µM
TGI (SW-620 colon): > 100 µM
TGI (TK-10 renal): > 100 µM
TGI (U251 CNS): > 100 µM
TGI (UACC-257 melanoma): > 100 µM
TGI (UACC-62 melanoma): > 100 µM

COc1cc2c3c(n(CCCNCCCNCCCNCCCN)c(=O)c2cc1OC)-c1cc2c(cc1C3=O)OCO2
GI50 (786-0 renal): 2.31 µM
TGI (786-0 renal): 7.68 µM
GI50 (A498 renal): 3.14 µM
TGI (A498 renal): 12.1 µM
GI50 (A549 NSCLC): 2.2 µM
TGI (A549 NSCLC): 11.7 µM
GI50 (ACHN renal): 3.1 µM
TGI (ACHN renal): 12 µM
GI50 (BT-549 breast): 2.2 µM
TGI (BT-549 breast): 6.44 µM
GI50 (CAKI-1 renal): 1.78 µM
TGI (CAKI-1 renal): 3.8 µM
GI50 (CCRF-CEM leukemia): 0.301 µM
TGI (CCRF-CEM leukemia): 2.16 µM
GI50 (COLO 205 colon): 1.49 µM
TGI (COLO 205 colon): > 100 µM
GI50 (DU-145 prostate): 1.42 µM
TGI (DU-145 prostate): 4.19 µM
GI50 (EKVX NSCLC): 1.18 µM
TGI (EKVX NSCLC): 3.5 µM
GI50 (HCT-116 colon): 1.5 µM
TGI (HCT-116 colon): 3.13 µM
GI50 (HCT-15 colon): 6.77 µM
TGI (HCT-15 colon): 29 µM
GI50 (HL-60(TB) leukemia): 1.36 µM
TGI (HL-60(TB) leukemia): 3.3 µM
GI50 (HOP-62 NSCLC): 3.01 µM
TGI (HOP-62 NSCLC): 13 µM
GI50 (HOP-92 NSCLC): 2.74 µM
TGI (HOP-92 NSCLC): 9.64 µM
GI50 (HS 578T breast): 2.78 µM
TGI (HS 578T breast): 8.42 µM
GI50 (HT29 colon): 2.28 µM
TGI (HT29 colon): 16.4 µM
GI50 (IGROV1 ovarian): 3.72 µM
TGI (IGROV1 ovarian): > 100 µM
GI50 (K-562 leukemia): 2.05 µM
TGI (K-562 leukemia): 5.22 µM
GI50 (KM12 colon): 1.73 µM
TGI (KM12 colon): 4.03 µM
GI50 (LOX IMVI melanoma): 1.15 µM
TGI (LOX IMVI melanoma): 3.25 µM
GI50 (M14 melanoma): 2.84 µM
TGI (M14 melanoma): 14.2 µM
GI50 (MALME-3M melanoma): 0.318 µM
TGI (MALME-3M melanoma): 1.29 µM
GI50 (MCF7 breast): 0.712 µM
TGI (MCF7 breast): 2.47 µM
GI50 (MDA-MB-231 breast): 2.43 µM
TGI (MDA-MB-231 breast): 7.79 µM
GI50 (MDA-MB-435): 1.45 µM
TGI (MDA-MB-435): 3.18 µM
GI50 (MOLT-4 leukemia): 0.369 µM
TGI (MOLT-4 leukemia): 2.57 µM
GI50 (NCI-H226 lung): 2.92 µM
TGI (NCI-H226 lung): 7.26 µM
GI50 (NCI-H23 lung): 1.5 µM
TGI (NCI-H23 lung): 3.86 µM
GI50 (NCI-H460 lung): 1.32 µM
TGI (NCI-H460 lung): 4.25 µM
GI50 (NCI-H522 lung): 3.61 µM
TGI (NCI-H522 lung): > 100 µM
GI50 (NCI/ADR-RES ovarian): 1.83 µM
TGI (NCI/ADR-RES ovarian): 3.22 µM
GI50 (OVCAR-3 ovarian): 1.57 µM
TGI (OVCAR-3 ovarian): 3.88 µM
GI50 (OVCAR-4 ovarian): 4.34 µM
TGI (OVCAR-4 ovarian): 58 µM
GI50 (OVCAR-5 ovarian): 1.76 µM
TGI (OVCAR-5 ovarian): 5.63 µM
GI50 (OVCAR-8 ovarian): 2.19 µM
TGI (OVCAR-8 ovarian): 10.8 µM
GI50 (PC-3 prostate): 3.31 µM
TGI (PC-3 prostate): 14.8 µM
GI50 (RXF 393 renal): 1.7 µM
TGI (RXF 393 renal): 4.46 µM
GI50 (SF-268 CNS): 1.7 µM
TGI (SF-268 CNS): 4.33 µM
GI50 (SF-295 CNS): 1.38 µM
TGI (SF-295 CNS): 3.97 µM
GI50 (SK-MEL-2 melanoma): 4.78 µM
TGI (SK-MEL-2 melanoma): 89 µM
GI50 (SK-MEL-28 melanoma): 2.29 µM
TGI (SK-MEL-28 melanoma): 25.2 µM
GI50 (SK-OV-3 ovarian): 8.52 µM
TGI (SK-OV-3 ovarian): > 100 µM
GI50 (SN12C renal): 1.56 µM
TGI (SN12C renal): 9.35 µM
GI50 (SNB-19 CNS): 2.23 µM
TGI (SNB-19 CNS): 15.4 µM
GI50 (SNB-75 CNS): 2.98 µM
TGI (SNB-75 CNS): 13.6 µM
GI50 (SW-620 colon): 2.18 µM
TGI (SW-620 colon): 13.9 µM
GI50 (T-47D breast): 2.36 µM
TGI (T-47D breast): > 100 µM
GI50 (TK-10 renal): 2.8 µM
TGI (TK-10 renal): 5.8 µM
GI50 (U251 CNS): 1.33 µM
TGI (U251 CNS): 3.81 µM
GI50 (UACC-257 melanoma): 3.72 µM
TGI (UACC-257 melanoma): 17.2 µM
GI50 (UACC-62 melanoma): 1.68 µM
TGI (UACC-62 melanoma): 6.19 µM
GI50 (UO-31 renal): 7.39 µM
TGI (UO-31 renal): > 100 µM
